# Measured values published in patent US20060211573A1, “7-(Akenylamino)triazolopyrimidines, method for the production thereof and use thereof in controlling harmful fungi and substances containing said triazolopyrimidines” (priority 2003, published 2006).
# System: Alternaria solani
# Experiment: Activity against early blight of tomato caused by Alternaria solani (protective spray on tomato leaves)
# Type: in vivo
# Settings: 250 ppm active compound, sprayed one day before infection, assessed after 5 days; untreated plants 100% infected
# Method: The active compounds were prepared, separately or together, as a stock solution with 0.25% by weight of active compound in acetone or DMSO. 1% by weight of the emulsi-fier Uniperol® EL (wetting agent with an emulsifying and dispersing action based on ethoxylated alkylphenols) was added to this solution and appropriately diluted with water to the desired concentration. Leaves of pot plants of the variety “Grope Fleischtomate St. Pierre” were sprayed to runoff point with an aqueous suspension in the active compound concentration given below. On the following day, the leaves were infected with an aqueous suspension of spores of Alternaria solani in 2% Biomalz solution with a concentration of 0.17×10^6 spores/ml. The plants were subsequently placed in a chamber saturated with water vapor at temperatures between 20 and 22° C. After 5 days, leaf infection in the untreated but infected control plants had so extensively developed that the infection could be visually determined in %.
smiles,measurement,value
"C=CC(C)Nc1c(-c2c(F)cc(F)cc2F)c(Cl)nc2ncnn12 (stereo not shown) [I-1, 5-chloro-6-(2,4,6-trifluorophenyl)-7-(1-methyl-2-propen-1-yl)amino[1,2,4]triazolo[1,5-a]pyrimidine]","leaf infection, visually determined in %",no infection
